Experimental data published in ChEMBL document CHEMBL1138308, “Synthesis and antibacterial activity of potent heterocyclic oxazolidinones and the identification of RBx 8700” (2007).
Values after ≈ are worked out from the molar mass of the structure shown.

Tested on: Mycobacterium tuberculosis
Assay: Antibacterial activity against multi drug resistant Mycobacterium tuberculosis
Type: functional

In the case of CC(=O)NC[C@H]1CN(c2ccc(N3CCN(c4ccc([N+](=O)[O-])s4)CC3)c(F)c2)C(=O)O1, the MIC90 is reported as 1 µg/mL (≈ 2.16 µM).
